The term inhibition denotes the drop in the measured response relative to a control, in per cent. The EC50 is the concentration giving half of the maximal effect. Low values mean an effect from little substance, high ones a need for much substance.

Each structure is given as a SMILES string. Entries after “also recorded” stand apart in the source; their conditions may differ.

The source of these data is publication PMC5004205, “Spiro[pyrrolidine-3, 3´-oxindole] as potent anti-breast cancer compounds: Their design, synthesis, biological evaluation and cellular target identification” (Scientific Reports, 2016).

Holding throughout (type): cell-based
The test system of one data set is MCF10A cells. Description: MTT cytotoxicity assay, MCF10A. On the procedure:
MCF10A was obtained from American Tissue Type Culture Collection (ATCC, Bethesda, MD). All cells were grown in a humidified atmosphere at 37 °C, with 5% CO2 in air.
(§1) The MTT colorimetric viability assay was performed to evaluate the anticancer effect of compounds. 30,000 cells/100 μl of media were seeded per well and allowed to stretch and adhere overnight at 37 °C. Following day media was removed and 100 μl fresh media was added to the grown cells. Adhered cells were then treated with the compounds 5a-m dissolved in DMSO in triplicates at a standard concentration of 50 μM for 48 hours. There was one positive and one negative control along with 13 compounds. The results were measured all in triplicate in 45 wells of 96 well plate at each time point. Cytotoxic effect was evaluated using ability of live cells to cleave MTT ((3-[4, 5- dimethylthiazol-2-yl]-2, 5-diphenyl tetrazolium bromide)) (Sigma-Aldrich, St Louis, MO, USA), into formazan crystals. Post 48 hours of treatment, 10 μl of MTT (5 mg/ml in PBS) was added to the cells and incubated for 4 hours in dark at 37 °C. The violet colored crystals formed were then dissolved in 100 μl DMSO solvent (Dimethyl Sulfoxide, Sigma-Aldrich, St. Louis, MO, USA). The colorimetric assay was read by a MultiMode Plate Reader (Bio-Rad) at 595 nm. Percentage of Inhibition of drug was calculated by following formula: […]
Cytotoxicity assay with MCF 10A
Experiment :MCF10A cytotoxicity assay 48 hours
Raw Data{Wavelength:595.0}
O.D1 O.D2 O.D3 AVG CTRL-TEST CTRL-TST/CTRL*100
(1 picture or pasted object on this page, not shown here)
For orientation: Tetrazolium dyes change colour on reduction, which living cells bring about.

The subject of another data set is MCF-7 cells. Description: DNA fragmentation (DNA-ladder) assay. The note with it: MCF-7, gel electrophoresis. On the procedure: The DMSO (dimethyl sulphoxide)–SDS (sodium dodecyl sulphate)–TE (Tris-EDTA) method: 2 million MCF-7cells were taken as starting material for DNA isolation. Cells were dislodged with Trypsin-EDTA and washed with 1 X PBS. DMSO was added directly to the cell pellet (100 μl) and mixed well by pipetting. TE buffer (pH 7.4) with 2% SDS was added into the mixture with same volume, followed by pipetting. The solution was centrifuged at 3000 rpm at 4 °C and 30 μL of the supernatant was loaded on agarose gel to check the effect of drugs on DNA molecule.

The subject of a further data set is COS-7 cells. Put plainly: MTT colorimetric cell viability assay, COS-7. On the procedure:
as §1

The subject of data set [1] is MCF-7 breast cancer cells. Description: MTT colorimetric cell viability assay, MCF-7. The note with it: for CTRL-TST/CTRL*100 (inhibition) MCF-7: EC50 plate. On the procedure:
MCF-7 cells were maintained as monolayer in 25 cm^2 culture flasks (T-25) at 37 °C in DMEM medium (GIBCO, St. Louis, USA) supplemented with high glucose, L-glutamine, pyridoxine hydrochloride, 110 mg/L sodium pyruvate, 3.7 g/L NaHCO3 and antibiotics (Penicillin-10,000 units/mL, Streptomycin −10,000 μg/mL, GIBCO, USA). Growth medium (pH 7.4) was prepared by adding 5% heat inactivated FBS (Fetal Bovine Serum, GIBCO, USA) and stored at 4 °C. The medium was changed 10–18 hrs prior to experiment, and cells were confluent at the time of experimentation. Cells were dislodged from flasks by gentle trypsinization containing 0.25% Trypsin. MCF-7 cells were regularly sub-cultured thrice a week in a seeding density of 40,000–50,000 cells/cm^2area. Cell confluency = 70%
The MTT colorimetric viability assay was performed to evaluate the anticancer effect of compounds. 30,000 cells/100 μl of media were seeded per well and allowed to stretch and adhere overnight at 37 °C. Following day media was removed and 100 μl fresh media was added to the grown cells. […] There was one positive and one negative control along with 13 compounds. The results were measured all in triplicate in 45 wells of 96 well plate at each time point. Cytotoxic effect was evaluated using ability of live cells to cleave MTT ((3-[4, 5- dimethylthiazol-2-yl]-2, 5-diphenyl tetrazolium bromide)) (Sigma-Aldrich, St Louis, MO, USA), into formazan crystals. Post 48 hours of treatment, 10 μl of MTT (5 mg/ml in PBS) was added to the cells and incubated for 4 hours in dark at 37 °C. The violet colored crystals formed were then dissolved in 100 μl DMSO solvent (Dimethyl Sulfoxide, Sigma-Aldrich, St. Louis, MO, USA). The colorimetric assay was read by a MultiMode Plate Reader (Bio-Rad) at 595 nm. Percentage of Inhibition of drug was calculated by following formula:
O.D1 O.D2 O.D3 AVG CTRL-TST CTRL-TST/CTRL*100 stdev

In the case of `O=C1Nc2ccccc2C12CCNC2c1ccccc1` (stereo not shown) [Compound 5l], in the data set on MCF10A cells, the “Effect on proliferation of healthy MCF10A cells” value is given as “did not inhibit the proliferation; also recorded: little or no effect”. The “CTRL-TST/CTRL*100 MCF10A cytotoxicity” value in the data set on MCF10A cells (48 hours, 595 nm) came to 0.08. Also, in the data set with MCF10A cells (MTT, 48 hours), the “Percentage inhibition MCF10A” value was found to be 0.08%. In addition, in the data set with MCF-7 cells, the “DNA fragmentation pattern / mode of cell death” value is listed as “smearing of DNA fragments”. Also, the “Inhibition of proliferation of healthy COS-7 cells” value in the data set with COS-7 cells was “did not inhibit the proliferation”. Besides, the inhibition at 50 µM with COS-7 cells (Chlorocebus aethiops, COS-7, 50 μM, MTT, triplicates, read-out: Percentage inhibition COS-7) turned out to be 15.4 ± 0.18%; in data set [1] (Homo sapiens, MCF7, 50 μM, 48 hours, MTT, triplicates, read-out: Percentage inhibition MCF-7), 60.96 ± 0.09%. Besides, the “CTRL-TST/CTRL*100 (inhibition) MCF-7” value in data set [1] (concentration row 10) is listed as 24.36; in data set [1] (concentration row 20), 33.4492; in data set [1] (concentration row 30) it was 48.26; in data set [1] (concentration row 40) it was 62.51; in data set [1] (concentration row 50) it was 66.98. In data set [1] (Homo sapiens, MCF7, MTT, mean of three experiments), this compound yielded an EC50 of 3.5 µM.
